Data: publication PMC5218480 (PLoS ONE, 2017)

System: MV-4-11 cells
Test: Gene expression microarray analysis (Affymetrix PrimeView) and GSEA
Type: cell-based, human
Parameters: RFU PODN (11730768_x_at) / Fold change /veh PODN (11730768_x_at) / RFU LINC00158 (11744669_a_at) / Fold change /veh LINC00158 (11744669_a_at) / RFU DUSP10 (11751237_a_at) / Fold change /veh DUSP10 (11751237_a_at) / RFU ID3 (11757404_x_at) / Fold change /veh ID3 (11757404_x_at) / RFU PLEKHG5 (11737974_s_at) / Fold change /veh PLEKHG5 (11737974_s_at) / RFU LRRC4B (11730491_at) / Fold change /veh LRRC4B (11730491_at) / RFU GIMAP4 (11747438_a_at) / Fold change /veh GIMAP4 (11747438_a_at) / RFU KRT8 (11758183_x_at) / Fold change /veh KRT8 (11758183_x_at) / RFU CNN1 (11734310_a_at) / Fold change /veh CNN1 (11734310_a_at) / RFU VPS37D (11726825_at) / Fold change /veh VPS37D (11726825_at) / RFU C10orf10 (11716522_x_at) / Fold change /veh C10orf10 (11716522_x_at) / RFU KIR2DL2 /// KIR2DL4 /// KIR2DL5A /// KIR2DL5B /// KIR2DS1 /// KIR2DS2 /// KIR2DS3 /// KIR2DS4 /// KIR3DL3 /// KIR3DL3 /// KIR3DS1 (11738374_at) / Fold change /veh KIR2DL2 /// KIR2DL4 /// KIR2DL5A /// KIR2DL5B /// KIR2DS1 /// KIR2DS2 /// KIR2DS3 /// KIR2DS4 /// KIR3DL3 /// KIR3DL3 /// KIR3DS1 (11738374_at) / RFU C1QL1 (11718748_at) / Fold change /veh C1QL1 (11718748_at) / RFU TMPRSS4 (11747572_a_at) / Fold change /veh TMPRSS4 (11747572_a_at) / RFU HAMP (11756126_x_at) / Fold change /veh HAMP (11756126_x_at) / RFU RNFT2 (11725882_a_at) / Fold change /veh RNFT2 (11725882_a_at) / RFU NR4A2 (11747474_a_at) / Fold change /veh NR4A2 (11747474_a_at) / RFU ABCC12 (11746883_a_at) / Fold change /veh ABCC12 (11746883_a_at) / RFU TMEM136 (11760407_x_at) / Fold change /veh TMEM136 (11760407_x_at) / RFU CLDN22 /// WWC2 (11732394_at) / Fold change /veh CLDN22 /// WWC2 (11732394_at) / RFU HLA-DPB1 (11760878_x_at) / Fold change /veh HLA-DPB1 (11760878_x_at) / RFU SPINT1 (11716480_a_at) / Fold change /veh SPINT1 (11716480_a_at) / RFU GAP43 (11754022_s_at) / Fold change /veh GAP43 (11754022_s_at) / RFU A4GNT (11735810_at) / Fold change /veh A4GNT (11735810_at) / RFU PRB3 (11715151_x_at) / Fold change /veh PRB3 (11715151_x_at) / RFU TUBB4B (11761932_at) / Fold change /veh TUBB4B (11761932_at) / RFU CAPN14 (11732068_a_at) / Fold change /veh CAPN14 (11732068_a_at) / RFU TMCC2 (11721928_a_at) / Fold change /veh TMCC2 (11721928_a_at) / RFU IRGQ (11745062_a_at) / Fold change /veh IRGQ (11745062_a_at) / RFU FAM174B (11720279_a_at) / Fold change /veh FAM174B (11720279_a_at) / RFU TMPRSS4 (11748680_a_at) / Fold change /veh TMPRSS4 (11748680_a_at) / RFU FAM212B (11763350_a_at) / Fold change /veh FAM212B (11763350_a_at) / RFU PLEKHG5 (11743358_a_at) / Fold change /veh PLEKHG5 (11743358_a_at) / RFU ZSCAN30 (11745921_a_at) / Fold change /veh ZSCAN30 (11745921_a_at) / RFU CMKLR1 (11741424_a_at) / Fold change /veh CMKLR1 (11741424_a_at) / RFU LOC101060620 /// MAPK8IP1 (11723275_at) / Fold change /veh LOC101060620 /// MAPK8IP1 (11723275_at) / RFU SPTSSB (11747773_x_at) / Fold change /veh SPTSSB (11747773_x_at) / RFU PRSS12 (11739890_at) / Fold change /veh PRSS12 (11739890_at) / RFU BIN1 (11741810_x_at) / Fold change /veh BIN1 (11741810_x_at) / RFU WNT11 (11732464_a_at) / Fold change /veh WNT11 (11732464_a_at) / RFU C10orf10 (11716521_a_at) / Fold change /veh C10orf10 (11716521_a_at) / RFU C5orf56 (11738089_at) / Fold change /veh C5orf56 (11738089_at) / RFU CYB561 (11721691_x_at) / Fold change /veh CYB561 (11721691_x_at) / RFU ANKRD19P (11752326_a_at) / Fold change /veh ANKRD19P (11752326_a_at) / RFU OR2T12 /// OR2T33 /// OR2T8 (11738714_s_at) / Fold change /veh OR2T12 /// OR2T33 /// OR2T8 (11738714_s_at) / RFU VCAN (11748164_a_at) / Fold change /veh VCAN (11748164_a_at) / RFU JSRP1 (11732532_at) / Fold change /veh JSRP1 (11732532_at) / RFU KRTAP10-11 (11738290_x_at) / Fold change /veh KRTAP10-11 (11738290_x_at) / RFU MYO3A (11730013_a_at) / Fold change /veh MYO3A (11730013_a_at) / RFU EBF3 (11725865_a_at) / Fold change /veh EBF3 (11725865_a_at) / RFU CAMK2N1 (11719241_x_at) / Fold change /veh CAMK2N1 (11719241_x_at) / RFU C5orf56 (11738088_a_at) / Fold change /veh C5orf56 (11738088_a_at) / RFU OLFML3 (11715873_a_at) / Fold change /veh OLFML3 (11715873_a_at) / RFU LOC100653217 /// NTM (11731650_a_at) / Fold change /veh LOC100653217 /// NTM (11731650_a_at) / RFU MAPK11 (11762145_a_at) / Fold change /veh MAPK11 (11762145_a_at) / RFU FIZ1 (11724087_x_at) / Fold change /veh FIZ1 (11724087_x_at) / RFU OASL (11726364_x_at) / Fold change /veh OASL (11726364_x_at) / RFU SOX15 (11748057_x_at) / Fold change /veh SOX15 (11748057_x_at) / RFU CD79A (11719716_a_at) / Fold change /veh CD79A (11719716_a_at) / RFU HIST1H1D (11736915_at) / Fold change /veh HIST1H1D (11736915_at) / RFU CASKIN2 (11723855_a_at) / Fold change /veh CASKIN2 (11723855_a_at) / RFU LOC730098 (11760151_x_at) / Fold change /veh LOC730098 (11760151_x_at) / RFU OR4N2 (11742367_at) / Fold change /veh OR4N2 (11742367_at) / RFU PRRT2 (11749266_a_at) / Fold change /veh PRRT2 (11749266_a_at) / RFU SNX32 (11753110_a_at) / Fold change /veh SNX32 (11753110_a_at) / RFU CDHR5 (11726645_a_at) / Fold change /veh CDHR5 (11726645_a_at) / RFU RCAN1 (11760418_a_at) / Fold change /veh RCAN1 (11760418_a_at) / RFU FAM167A (11723789_a_at) / Fold change /veh FAM167A (11723789_a_at) / RFU FAM26E (11764081_at) / Fold change /veh FAM26E (11764081_at) / RFU ISYNA1 (11749810_s_at) / Fold change /veh ISYNA1 (11749810_s_at) / RFU ACY1 (11761880_at) / Fold change /veh ACY1 (11761880_at) / RFU 11764098_at / Fold change /veh 11764098_at / RFU SAMD14 (11745864_x_at) / Fold change /veh SAMD14 (11745864_x_at) / RFU NPB (11741838_a_at) / Fold change /veh NPB (11741838_a_at) / RFU TMPRSS6 (11731388_a_at) / Fold change /veh TMPRSS6 (11731388_a_at) / RFU KRTAP10-2 (11738614_at) / Fold change /veh KRTAP10-2 (11738614_at) / RFU ARHGAP8 /// PRR5-ARHGAP8 (11727945_x_at) / Fold change /veh ARHGAP8 /// PRR5-ARHGAP8 (11727945_x_at) / RFU KRTAP5-7 /// NADSYN1 (11734609_at) / Fold change /veh KRTAP5-7 /// NADSYN1 (11734609_at) / RFU RASL12 (11751679_a_at) / Fold change /veh RASL12 (11751679_a_at) / RFU CDKN2B (11736163_a_at) / Fold change /veh CDKN2B (11736163_a_at) / RFU PRF1 (11729649_at) / Fold change /veh PRF1 (11729649_at) / RFU, ZNF638 /// ZNF638-IT1 / Fold change vs veh, ZNF638 /// ZNF638-IT1 / RFU, PANK3 / Fold change vs veh, PANK3 / RFU, SH3YL1 / Fold change vs veh, SH3YL1 / RFU, ZEB2 / Fold change vs veh, ZEB2 / RFU, NRIP1 / Fold change vs veh, NRIP1 / RFU, PTTG1IP / Fold change vs veh, PTTG1IP / RFU, CAPN2 / Fold change vs veh, CAPN2 / RFU, MED14 / Fold change vs veh, MED14 / RFU, SNORA58 / Fold change vs veh, SNORA58 / RFU, C1orf63 / Fold change vs veh, C1orf63 / RFU, LRRFIP1 / Fold change vs veh, LRRFIP1 / RFU, NDUFAF7 / Fold change vs veh, NDUFAF7 / RFU, SLC12A2 / Fold change vs veh, SLC12A2 / RFU, IBTK / Fold change vs veh, IBTK / RFU, ESF1 / Fold change vs veh, ESF1 / Fold change vs veh, TMEM50B / RFU, TAOK1 / Fold change vs veh, TAOK1 / RFU, ACBD3 / Fold change vs veh, ACBD3 / RFU, TMA16 / Fold change vs veh, TMA16 / RFU, RWDD3 / Fold change vs veh, RWDD3 / RFU, BCAT1 / Fold change vs veh, BCAT1 / RFU, EDEM3 / Fold change vs veh, EDEM3 / RFU, TMEM33 / Fold change vs veh, TMEM33 / RFU, WDR75 / Fold change vs veh, WDR75 / RFU, AHCTF1 / Fold change vs veh, AHCTF1 / RFU, TFRC / Fold change vs veh, TFRC / RFU, ZDHHC17 / Fold change vs veh, ZDHHC17 / RFU, NOM1 / Fold change vs veh, NOM1 / RFU, ARL8B / Fold change vs veh, ARL8B / RFU, ZBTB11 / Fold change vs veh, ZBTB11 / RFU, TAMM41 / Fold change vs veh, TAMM41 / RFU, KIAA1704 /// LOC100996395 / Fold change vs veh, KIAA1704 /// LOC100996395 / RFU, ING1 / Fold change vs veh, ING1 / RFU, TRMT61B / Fold change vs veh, TRMT61B / RFU, FUBP3 / Fold change vs veh, FUBP3 / RFU, TP53 / Fold change vs veh, TP53 / RFU, TNKS2 / Fold change vs veh, TNKS2 / RFU, ZFP14 / Fold change vs veh, ZFP14 / RFU, ACTR2 / Fold change vs veh, ACTR2 / RFU, PPP3R1 / Fold change vs veh, PPP3R1 / RFU, PIK3R1 / Fold change vs veh, PIK3R1 / RFU, HNRNPA1 / Fold change vs veh, HNRNPA1 / RFU, RNF170 / Fold change vs veh, RNF170 / RFU, ZNF28 / Fold change vs veh, ZNF28 / RFU, RNGTT / Fold change vs veh, RNGTT / RFU, OGT / Fold change vs veh, OGT / RFU, BRD1 / Fold change vs veh, BRD1 / RFU, MARS / Fold change vs veh, MARS / RFU, ZNF655 / Fold change vs veh, ZNF655 / RFU, FAHD1 / Fold change vs veh, FAHD1 / RFU, BDP1 / Fold change vs veh, BDP1 / RFU, LRRCC1 / Fold change vs veh, LRRCC1 / RFU, ARID1A / Fold change vs veh, ARID1A / RFU, ZNF146 / Fold change vs veh, ZNF146 / RFU, ZNF330 / Fold change vs veh, ZNF330 / RFU, GPN3 / Fold change vs veh, GPN3 / RFU, C9orf123 / Fold change vs veh, C9orf123 / RFU, N4BP2L2 / Fold change vs veh, N4BP2L2 / RFU, ARFIP1 / Fold change vs veh, ARFIP1 / RFU, FAM179B / Fold change vs veh, FAM179B / RFU, BCL10 / Fold change vs veh, BCL10 / RFU, UHRF1BP1L / Fold change vs veh, UHRF1BP1L / RFU, BET1 / Fold change vs veh, BET1 / RFU, CNOT2 / Fold change vs veh, CNOT2 / RFU, ZNF268 / Fold change vs veh, ZNF268 / Fold change vs veh, ZNF507 / RFU, DGCR2 / Fold change vs veh, DGCR2 / RFU, WDSUB1 / Fold change vs veh, WDSUB1 / Fold change vs veh, HSP90B1 /// MIR3652 / RFU, ADSS / Fold change vs veh, ADSS / RFU, GK / Fold change vs veh, GK / RFU, ZNF148 / Fold change vs veh, ZNF148 / RFU, TAF9 / Fold change vs veh, TAF9 / RFU, SLC1A5 / Fold change vs veh, SLC1A5 / RFU, SLMO2 / Fold change vs veh, SLMO2 / RFU, ABCC4 / Fold change vs veh, ABCC4 / RFU, LOC101060439 /// RAP1B / Fold change vs veh, LOC101060439 /// RAP1B / RFU, RFX7 / Fold change vs veh, RFX7 / RFU, GTPBP10 / Fold change vs veh, GTPBP10 / RFU, CNEP1R1 / Fold change vs veh, CNEP1R1 / RFU, BIVM-ERCC5 /// ERCC5 / Fold change vs veh, BIVM-ERCC5 /// ERCC5 / RFU, ILF3 / Fold change vs veh, ILF3 / RFU 11762660_at / Fold change /veh 11762660_at / RFU VCAN (11757783_s_at) / Fold change /veh VCAN (11757783_s_at) / RFU DDX43 (11728927_at) / Fold change /veh DDX43 (11728927_at) / RFU KRT8 (11758188_x_at) / Fold change /veh KRT8 (11758188_x_at) / RFU NKD1 (11759106_at) / Fold change /veh NKD1 (11759106_at) / RFU SRD5A1 (11742802_a_at) / Fold change /veh SRD5A1 (11742802_a_at) / RFU TPSAB1 /// TPSB2 (11721975_s_at) / Fold change /veh TPSAB1 /// TPSB2 (11721975_s_at) / RFU GSTM3 (11746129_a_at) / Fold change /veh GSTM3 (11746129_a_at) / RFU IL23R (11737362_x_at) / Fold change /veh IL23R (11737362_x_at) / RFU TMEM51 (11727254_a_at) / Fold change /veh TMEM51 (11727254_a_at) / RFU PIWIL2 (11732686_x_at) / Fold change /veh PIWIL2 (11732686_x_at) / RFU ORM1 (11744905_x_at) / Fold change /veh ORM1 (11744905_x_at) / RFU CCDC152 (11743942_at) / Fold change /veh CCDC152 (11743942_at) / RFU ECM1 (11717891_a_at) / Fold change /veh ECM1 (11717891_a_at) / RFU IL23R (11748794_a_at) / Fold change /veh IL23R (11748794_a_at) / RFU TNFAIP8L3 (11732012_x_at) / Fold change /veh TNFAIP8L3 (11732012_x_at) / RFU MBOAT4 (11741988_at) / Fold change /veh MBOAT4 (11741988_at) / RFU 11764193_at / Fold change /veh 11764193_at / RFU TMEM53 (11763286_at) / Fold change /veh TMEM53 (11763286_at) / RFU MAGEB2 (11727129_at) / Fold change /veh MAGEB2 (11727129_at) / RFU TMEM200A (11744735_a_at) / Fold change /veh TMEM200A (11744735_a_at) / RFU CCDC152 (11751479_a_at) / Fold change /veh CCDC152 (11751479_a_at) / RFU FAM211A (11726209_a_at) / Fold change /veh FAM211A (11726209_a_at) / RFU RGS16 (11746705_a_at) / Fold change /veh RGS16 (11746705_a_at) / RFU VCAN (11755009_s_at) / Fold change /veh VCAN (11755009_s_at) / RFU RHOB (11743442_s_at) / Fold change /veh RHOB (11743442_s_at) / RFU RGS16 (11720943_a_at) / Fold change /veh RGS16 (11720943_a_at) / RFU RGS16 (11720944_at) / Fold change /veh RGS16 (11720944_at) / RFU, VPS4B / Fold change vs veh, VPS4B / RFU, CREB1 / Fold change vs veh, CREB1 / RFU, DNAJC13 / Fold change vs veh, DNAJC13 / RFU, GNAQ / Fold change vs veh, GNAQ / RFU, CDK5R1 / Fold change vs veh, CDK5R1 / RFU, ZRANB3 / Fold change vs veh, ZRANB3 / RFU, CUL4A / Fold change vs veh, CUL4A / RFU, CCNY / Fold change vs veh, CCNY / RFU, UFL1 / Fold change vs veh, UFL1 / RFU, COG3 / Fold change vs veh, COG3 / RFU, DIAPH2 / Fold change vs veh, DIAPH2 / RFU, SKA2 / Fold change vs veh, SKA2 / RFU, AFF3 / Fold change vs veh, AFF3 / RFU, LMF1 / Fold change vs veh, LMF1 / RFU, IPO11 / Fold change vs veh, IPO11 / RFU, DFFB / Fold change vs veh, DFFB / RFU, FOXP1 / Fold change vs veh, FOXP1 / RFU, CARD8 / Fold change vs veh, CARD8 / RFU, STRN3 / Fold change vs veh, STRN3 / RFU, ADK / Fold change vs veh, ADK / RFU, RASSF2 / Fold change vs veh, RASSF2 / RFU, WIPF1 / Fold change vs veh, WIPF1 / RFU, LARP1B / Fold change vs veh, LARP1B / RFU, RASA1 / Fold change vs veh, RASA1 / RFU, RB1 / Fold change vs veh, RB1 / RFU, PPFIA1 / Fold change vs veh, PPFIA1 / RFU, MAT2A / Fold change vs veh, MAT2A / RFU, CCT5 / Fold change vs veh, CCT5 / RFU, WDR92 / Fold change vs veh, WDR92 / RFU, CUX1 / Fold change vs veh, CUX1 / RFU, TTC7A / Fold change vs veh, TTC7A / RFU, TMEM135 / Fold change vs veh, TMEM135 / RFU, DEPTOR / Fold change vs veh, DEPTOR / RFU, CPM / Fold change vs veh, CPM / RFU, DNAJB6 / Fold change vs veh, DNAJB6 / RFU, CACNA2D3 / Fold change vs veh, CACNA2D3 / RFU, DTX4 / Fold change vs veh, DTX4 / RFU, TFCP2 / Fold change vs veh, TFCP2 / RFU, GMCL1 /// GMCL1P1 / Fold change vs veh, GMCL1 /// GMCL1P1 / RFU, AEBP2 / Fold change vs veh, AEBP2 / RFU, SNHG1 /// SNORD22 /// SNORD25 /// SNORD26 /// SNORD27 /// SNORD28 /// SNORD29 /// SNORD31 / Fold change vs veh, SNHG1 /// SNORD22 /// SNORD25 /// SNORD26 /// SNORD27 /// SNORD28 /// SNORD29 /// SNORD31 / Fold change (Aza/veh), C12orf56 (ProbeSet 11735607_a_at) / Fold change (ACY-1035/veh), C12orf56 (ProbeSet 11735607_a_at) / Fold change (Aza/veh), FGFR1OP (ProbeSet 11751329_s_at) / Fold change (ACY-1035/veh), FGFR1OP (ProbeSet 11751329_s_at) / Fold change (Aza/veh), VPS36 (ProbeSet 11739960_a_at) / Fold change (ACY-1035/veh), VPS36 (ProbeSet 11739960_a_at) / RFU SYPL1 (11715823_x_at) / Fold change /veh SYPL1 (11715823_x_at) / RFU IGFBP7 (11715501_s_at) / Fold change /veh IGFBP7 (11715501_s_at) / RFU REEP3 (11722064_at) / Fold change /veh REEP3 (11722064_at) / RFU IGLL1 (11728026_x_at) / Fold change /veh IGLL1 (11728026_x_at): dose or concentration left out as unconfirmed
Conditions: ProbeSet 11755159_a_at; LIST D

Q: For Nc1ccc(-c2cccs2)cc1NC(=O)c1ccc2c(c1)cc(C1CC1)n2CCN1CCOCC1 [ACY-1035], which “Fold change vs veh, COG3” value is on record?
A: Its value is 0.96.
